Test results from patent US7772192B2, “Compositions and methods for treatment of disease with acetylated disaccharides” (The Regents of the University of California, priority 2003, dated 2010).

Experiments:
[1] = tested on: LS180 cells; assay: Toxicity and growth of LS180 cells in culture; assay type: cell-based, human
Experimental: Adhesion to selectins is altered in disaccharide-treated tumor cells. Treatment of LS180 cells with AcGnG-NM was not toxic to the cells up to 100 μM based on growth curves and exclusion of Trypan blue. […] LS180 colon carcinoma cells were “panned” onto wells precoated with recombinant E- or P-selectin as indicated. Open circles, adhesion to E-selectin; filled circles, adhesion to P-selectin. The extent of adhesion was normalized to the value obtained for cells not treated with disaccharide. […] Each experimental condition was done in quadruplicate and the average values±standard errors are given. […] Adhesion to P-selectin was more sensitive to the inhibitor than adhesion to E-selectin under these conditions. The inhibitory effect of AcGnG-NM was specific since incubation of cells with acetylated Galβ1,3Galβ-O-NM (AcGG-NM) had no effect on expression of sLe^X or adhesion to either selectin conjugate See FIG. 3. The maximum extent of inhibition approached the values obtained when the cells were pre-treated with sialidase or blocking antibody to the corresponding selectin.
A final consideration is the ability of selectins to participate in “arresting” newly circulating tumor cells in organ capillary beds. Entrapment of emboli may have important consequences on the eventual uptake and growth of tumor “seeds” into large metastatic tumor foci. […]

[2] = tested on: LLC cells; assay: In vitro characterization of LLC cells (CSLEX-1 binding, lectin and PsIg flow cytometry); assay type: cell-based
Experimental: LLC cells were treated in culture for 4 days in the absence or presence of 50 μM peracetylated GlcNAcβ3Gal-NM. To quantitate sLex on the surface of LLC cells monoclonal antibody, CSLEX-1 binding to the cells was measured as described (Brown et al, J. Biol. Chem. 278: 23352-23359, 2003). […] Flow cytometry measures cell surface carbohydrate structures (Koenig et al, 1998). AAL and MAH are plant lectins. […] LLC cells have higher sialyltransferase activity than fucosyltransferase activity.

[3] = tested on: cell-surface sLe^a of LS180 cells; assay: Flow cytometry of cell-surface sLe^a (CA19-9); assay type: cell-based, human; details: 50 μM
Experimental: Peracetylated forms of GlcNAcβ1,3Galβ-O-naphthalenemethanol (AcGnG-NM) and Galβ1,3Galβ-O-naphthalenemethanol (AcGG-NM) were prepared as described. Sarkar, et al., Carbohydr. Res., 329, 287-300, 2000. The compounds were dissolved in dimethylsulfoxide (DMSO) and added to growth medium to achieve the concentrations indicated in the figures. The supplemented medium was then exchanged for the medium in established cultures of cells in order to avoid lysis caused by adding concentrated DMSO directly to the plates. The final concentration of DMSO was adjusted to ≦0.5% (v/v). After the specified number of days, the cells were harvested with 2 mM EDTA in PBS (20 min) and used for the following experiments.
Cell Sorting. To detect the presence or absence of the relevant carbohydrate determinants, cells were stained with CSLEX-1 (anti-sLe^X, 5 μg/mL, Becton-Dickinson) or CA-19-9 ([…], 14.5 μg/mL, Chemicon) and analyzed by flow cytometry (FACScan Becton-Dickinson, Franklin Lakes, N.J.). […]
Treatment of LS180 cells with AcGnG-NM reduces cell-surface sLe^X, but not sLe^a. […] LS180 cells were grown in the presence of 50 μM AcGnG-NM, harvested with EDTA, stained with monoclonal antibodies (CSLEX-1, anti-sLe^X and CA19-9, anti-sLe^a) as indicated and analyzed by flow cytometry (Materials and Methods). […]

GlcNAcβ1,3Galβ-O-naphthalenemethanol [AcGnG-NM]
LS180 growth in culture ([1]; up to 50 μM): minimal effects
toxicity to the cells ([1]; up to 100 μM, growth curves and exclusion of Trypan blue): not toxic
sLex expression (CSLEX-1 binding) ([2]; 50 μM, 4 days): reduces sLex expression
AAL reactivity (fucose) ([2]; flow cytometry): reduces AAL reactivity
sialylation (MAH) ([2]; flow cytometry): no effect on sialylation
cell-surface sLe^a [3]: no effect
